This note sets out measurements from patent US20070128217A1 (priority 2003, published 2007).

Experiment [1] relates to rabbit serum obtained by immunizing a rabbit with the SARS-CoV strain Frankfurt 1. In kind it is binding. More on the design: Binding of a rabbit serum to linear peptides / Binding of a rabbit serum to looped peptides / Rabbit serum linear peptides / Rabbit serum looped peptides / Binding of a rabbit serum to linear peptides of protein N of SARS-CoV Urbani (Rabbit serum linear peptides) / Binding of a rabbit serum to looped/cyclic peptides of protein N of SARS-CoV Urbani (Rabbit serum looped peptides): unit not given here.

In experiment [2] the test system is antibodies in sera from SARS patients (sera 1a, 1b, 2, 6, 37, 62, London, SARS-yellow, SARS-green). In kind it is binding, human. More on the design: Binding of serum 6 to linear peptides of protein X1 of SARS-CoV Urbani / Binding of serum 37 to linear peptides of protein X1 of SARS-CoV Urbani / Binding of serum 6 to looped/cyclic peptide (PEPSCAN-ELISA) / Binding of serum 37 to looped/cyclic peptide (PEPSCAN-ELISA) / Binding of serum 37 to looped/cyclic peptides of protein X1 of SARS-CoV Urbani / Binding of serum 6 to linear peptides of protein X2 / Binding of serum 37 to linear peptides of protein X2 / Binding of serum 37 to looped/cyclic peptides of protein X2 of SARS-CoV Urbani / Binding of serum 6 to linear peptides of protein M of SARS-CoV Urbani / Binding of serum 37 to linear peptides of protein M of SARS-CoV Urbani / Binding of serum 6 to looped/cyclic peptides of protein M of SARS-CoV Urbani / Binding of serum 37 to looped/cyclic peptides of protein M of SARS-CoV Urbani / Binding of serum 6 to linear peptides of protein X3 of SARS-CoV Urbani / Binding of serum 37 to linear peptides of protein X3 of SARS-CoV Urbani / Binding of serum 37 to looped/cyclic peptides of protein X3 of SARS-CoV Urbani / Binding of serum 6 to linear peptides of protein X4 of SARS-CoV Urbani / Binding of serum 37 to linear peptides of protein X4 of SARS-CoV Urbani / Binding of serum 37 to looped/cyclic peptides of protein X4 of SARS-CoV Urbani / Binding of serum 6 to linear peptides of protein X5 of SARS-CoV Urbani / Binding of serum 37 to linear peptides of protein X5 of SARS-CoV Urbani / Binding of serum 37 to looped/cyclic peptides of protein X5 of SARS-CoV Urbani / Binding of serum 6 to linear peptides of protein N of SARS-CoV Urbani / Binding of serum 37 to linear peptides of protein N of SARS-CoV Urbani / Binding of serum 6 to linear peptide (PEPSCAN-ELISA) / Binding of serum 1a to looped/cyclic peptides of protein N of SARS-CoV Urbani / Binding of serum 1b to looped/cyclic peptides of protein N of SARS-CoV Urbani / Binding of serum 2 to looped/cyclic peptides of protein N of SARS-CoV Urbani / Binding of serum 6 to looped/cyclic peptides of protein N of SARS-CoV Urbani / Binding of serum 37 to looped/cyclic peptides of protein N of SARS-CoV Urbani / Binding of serum 62 to looped/cyclic peptides of protein N of SARS-CoV Urbani / Binding of serum London to looped/cyclic peptides of protein N of SARS-CoV Urbani / Binding of serum SARS-green to looped/cyclic peptides of protein N of SARS-CoV Urbani: unit not given here.

The subject of experiment [3] is control sera (pooled serum of ten healthy LUMC hospital workers; commercial negative donor pooled serum from the Dutch bloodbank). The class given is binding, human. More on the design: Binding of Control serum LUMC to linear peptides / Binding of Control serum Blood-bank to linear peptides / Binding of Control serum LUMC to looped peptides / Binding of Control Serum Blood-Bank to Looped peptides / Binding of Control serum LUMC to linear peptides of the protein M of SARS-CoV Urbani / Binding of Control serum Blood-bank to linear peptides of the protein M of SARS-CoV Urbani / Binding of Control serum LUMC to looped peptides of the protein M of SARS-CoV Urbani / Binding of Control Serum Blood-Bank to Looped peptides of the protein M of SARS-CoV Urbani: unit not given here.

QFMMSRRRLLACLCK: in experiment [1], the “Binding of a rabbit serum to linear peptides” value is listed as 0.5 and the “Binding of a rabbit serum to looped peptides” value stood at 1.9. In experiment [2], the “Binding of serum 1a to linear peptides of protein X2” value was 0.7, the “Binding of serum 1a to looped/cyclic peptides of protein X2 of SARS-CoV Urbani” value is recorded as 0.4, the “Binding of serum 1b to linear peptides of protein X2” value is recorded as 0.5 and the “Binding of serum 1b to looped/cyclic peptides of protein X2 of SARS-CoV Urbani” value turned out to be 0.5. Besides, in experiment [2], the “Binding of serum 2 to linear peptides of protein X2” value is given as 0.5, the “Binding of serum 2 to looped/cyclic peptides of protein X2 of SARS-CoV Urbani” value is 0.5, the “Binding of serum 6 to linear peptides of protein X2” value was determined as 0.6 and the “Binding of serum 6 to looped/cyclic peptides of protein X2 of SARS-CoV Urbani” value turned out to be 0.1. Further, in experiment [2], the “Binding of serum 37 to linear peptides of protein X2” value is 0.5, the “Binding of serum 37 to looped/cyclic peptides of protein X2 of SARS-CoV Urbani” value came to 0.4, the “Binding of serum 62 to linear peptides of protein X2” value is on record as 0.6 and the “Binding of serum 62 to looped/cyclic peptides of protein X2 of SARS-CoV Urbani” value stood at 0.5. Besides, in experiment [2], the “Binding of serum London to linear peptides of protein X2” value is given as 0.6, the “Binding of serum London to looped/cyclic peptides of protein X2 of SARS-CoV Urbani” value was 0.2, the “Binding of serum SARS-green to linear peptides of protein X2” value is recorded as 0.4 and the “Binding of serum SARS-green to looped/cyclic peptides of protein X2 of SARS-CoV Urbani” value was 0.4. Also, in experiment [2], the “Binding of serum SARS-yellow to linear peptides of protein X2” value is given as 0.4 and the “Binding of serum SARS-yellow to looped/cyclic peptides of protein X2 of SARS-CoV Urbani” value is on record as 0.3. In experiment [3], the “Binding of Control Serum Blood-Bank to Looped peptides” value is listed as 0.3, the “Binding of Control serum Blood-bank to linear peptides” value is given as 0.7, the “Binding of Control serum LUMC to linear peptides” value was 0.5 and the “Binding of Control serum LUMC to looped peptides” value is reported as 0.4.

As to QLALYKGFQFICNLL, in experiment [1], the “Binding of a rabbit serum to linear peptides” value worked out at 0.3 and the “Binding of a rabbit serum to looped peptides” value came out at 0.6. In experiment [2], the “Binding of serum 1a to looped/cyclic peptide (PEPSCAN-ELISA)” value was 0.5, the “Binding of serum 1b to looped/cyclic peptide (PEPSCAN-ELISA)” value was determined as 0.4, the “Binding of serum 2 to looped/cyclic peptide (PEPSCAN-ELISA)” value was 0.4 and the “Binding of serum 6 to looped/cyclic peptide (PEPSCAN-ELISA)” value is given as 1.2. In experiment [2], the “Binding of serum 37 to looped/cyclic peptide (PEPSCAN-ELISA)” value worked out at 0.5, the “Binding of serum 62 to looped/cyclic peptide (PEPSCAN-ELISA)” value stood at 0.5, the “Binding of serum London to looped/cyclic peptide (PEPSCAN-ELISA)” value was 1.5 and the “Binding of serum SARS-green to looped/cyclic peptide (PEPSCAN-ELISA)” value was 0.3. The “Binding of serum SARS-yellow to looped/cyclic peptide (PEPSCAN-ELISA)” value in experiment [2] was determined as 0.5. In addition, in experiment [3], the “Binding of Control Serum Blood-Bank to Looped peptides” value was determined as 0.5, the “Binding of Control serum Blood-bank to linear peptides” value was 0.6, the “Binding of Control serum LUMC to linear peptides” value was found to be 0.5 and the “Binding of Control serum LUMC to looped peptides” value turned out to be 0.6.

With QRVGTDSGFAAYNRY, in experiment [1], the “Rabbit serum linear peptides” value was determined as 0.4 and the “Rabbit serum looped peptides” value was found to be 0.0. In addition, in experiment [2], the “Binding of serum 1a to linear peptides of protein M of SARS-CoV Urbani” value worked out at 0.7, the “Binding of serum 1a to looped/cyclic peptides of protein M of SARS-CoV Urbani” value stood at 0.6, the “Binding of serum 1b to linear peptides of protein M of SARS-CoV Urbani” value is listed as 0.5 and the “Binding of serum 1b to looped/cyclic peptides of protein M of SARS-CoV Urbani” value came out at 0.5. Moreover, in experiment [2], the “Binding of serum 2 to linear peptides of protein M of SARS-CoV Urbani” value is 0.5, the “Binding of serum 2 to looped/cyclic peptides of protein M of SARS-CoV Urbani” value is on record as 0.5, the “Binding of serum 6 to linear peptides of protein M of SARS-CoV Urbani” value was 0.3 and the “Binding of serum 6 to looped/cyclic peptides of protein M of SARS-CoV Urbani” value came out at 0.6. In experiment [2], the “Binding of serum 37 to linear peptides of protein M of SARS-CoV Urbani” value stood at 0.7, the “Binding of serum 37 to looped/cyclic peptides of protein M of SARS-CoV Urbani” value is on record as 0.6, the “Binding of serum 62 to linear peptides of protein M of SARS-CoV Urbani” value was 0.7 and the “Binding of serum 62 to looped/cyclic peptides of protein M of SARS-CoV Urbani” value was determined as 0.5. For the same sequence, in experiment [2], the “Binding of serum London to linear peptides of protein M of SARS-CoV Urbani” value turned out to be 0.3, the “Binding of serum London to looped/cyclic peptides of protein M of SARS-CoV Urbani” value came out at 0.2, the “Binding of serum SARS-green to linear peptides of protein M of SARS-CoV Urbani” value was 0.3 and the “Binding of serum SARS-green to looped/cyclic peptides of protein M of SARS-CoV Urbani” value was 0.3. Also, in experiment [2], the “Binding of serum SARS-yellow to linear peptides of protein M of SARS-CoV Urbani” value is listed as 0.1 and the “Binding of serum SARS-yellow to looped/cyclic peptides of protein M of SARS-CoV Urbani” value is 0.6. Moreover, in experiment [3], the “Binding of Control Serum Blood-Bank to Looped peptides of the protein M of SARS-CoV Urbani” value is reported as 0.7, the “Binding of Control serum Blood-bank to linear peptides of the protein M of SARS-CoV Urbani” value turned out to be 0.6, the “Binding of Control serum LUMC to linear peptides of the protein M of SARS-CoV Urbani” value is on record as 0.3 and the “Binding of Control serum LUMC to looped peptides of the protein M of SARS-CoV Urbani” value is on record as 0.8.

In the case of QSTALQELLIQQWIQ, in experiment [1], the “Binding of a rabbit serum to linear peptides” value turned out to be 0.2 and the “Binding of a rabbit serum to looped peptides” value is on record as 0.4. In addition, in experiment [2], the “Binding of serum 1a to linear peptides of protein X2” value is listed as 0.6, the “Binding of serum 1a to looped/cyclic peptides of protein X2 of SARS-CoV Urbani” value is listed as 0.6, the “Binding of serum 1b to linear peptides of protein X2” value is 0.4 and the “Binding of serum 1b to looped/cyclic peptides of protein X2 of SARS-CoV Urbani” value is reported as 0.5. Also, in experiment [2], the “Binding of serum 2 to linear peptides of protein X2” value was found to be 0.4, the “Binding of serum 2 to looped/cyclic peptides of protein X2 of SARS-CoV Urbani” value was found to be 0.4, the “Binding of serum 6 to linear peptides of protein X2” value came out at 0.4 and the “Binding of serum 6 to looped/cyclic peptides of protein X2 of SARS-CoV Urbani” value came out at 0.2. Also, in experiment [2], the “Binding of serum 37 to linear peptides of protein X2” value came out at 0.5, the “Binding of serum 37 to looped/cyclic peptides of protein X2 of SARS-CoV Urbani” value was 0.4, the “Binding of serum 62 to linear peptides of protein X2” value is given as 0.5 and the “Binding of serum 62 to looped/cyclic peptides of protein X2 of SARS-CoV Urbani” value is 0.6. In addition, in experiment [2], the “Binding of serum London to linear peptides of protein X2” value was determined as 0.5, the “Binding of serum London to looped/cyclic peptides of protein X2 of SARS-CoV Urbani” value was 0.2, the “Binding of serum SARS-green to linear peptides of protein X2” value turned out to be 0.6 and the “Binding of serum SARS-green to looped/cyclic peptides of protein X2 of SARS-CoV Urbani” value was 0.4. For the same sequence, in experiment [2], the “Binding of serum SARS-yellow to linear peptides of protein X2” value is reported as 0.4 and the “Binding of serum SARS-yellow to looped/cyclic peptides of protein X2 of SARS-CoV Urbani” value is 0.4. Also, in experiment [3], the “Binding of Control Serum Blood-Bank to Looped peptides” value came out at 0.6, the “Binding of Control serum Blood-bank to linear peptides” value is 0.6, the “Binding of Control serum LUMC to linear peptides” value is reported as 0.4 and the “Binding of Control serum LUMC to looped peptides” value was found to be 0.6.
